Assay results from ChEMBL document CHEMBL1201862, “PubChem BioAssay data set” (2004).
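Following 48 hours of exposure in 96-well plates, responses at five concentrations were used to interpolate endpoints linearly. Here, GI50 denotes the concentration required for 50% inhibition of growth.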 Active and inactive are the calls of the source. No stated cut-off is given here; in the data, active = GI50 up to about 1.1 µM and inactive = higher.

What was measured:
Test in all cases: NCI anticancer screen, dose series, 48 h
UACC-257 = system: UACC-257
SW-620 = system: SW-620
UACC-62 = system: UACC-62
CAKI-1 = system: CAKI-1
NCI-H460 = system: NCI-H460
PC-3 = system: PC-3
SF-268 = system: SF-268
KM12 = system: KM12
SF-295 = system: SF-295
A549 = system: A549
OVCAR-4 = system: OVCAR-4
COLO 205 = system: COLO 205
HCT-15 = system: HCT-15
SK-MEL-28 = system: SK-MEL-28
MDA-N = system: MDA-N
SR = system: SR
A498 = system: A498
LOX IMVI = system: LOX IMVI
SN12C = system: SN12C
CCRF-CEM = system: CCRF-CEM
SF-539 = system: SF-539
SK-MEL-2 = system: SK-MEL-2
HT-29 = system: HT-29
MDA-MB-231 = system: MDA-MB-231
BT-549 = system: BT-549
K562 = system: K562
RXF 393 = system: RXF 393
RPMI-8226 = system: RPMI-8226
ACHN = system: ACHN
HOP-62 = system: HOP-62
OVCAR-5 = system: OVCAR-5
MDA-MB-435 = system: MDA-MB-435
NCI-H226 = system: NCI-H226
HCT-116 = system: HCT-116
U-251 = system: U-251
TK-10 = system: TK-10
MCF7 = system: MCF7
NCI-H23 = system: NCI-H23
DU-145 = system: DU-145
SNB-19 = system: SNB-19
OVCAR-3 = system: OVCAR-3
EKVX = system: EKVX
OVCAR-8 = system: OVCAR-8
SK-OV-3 = system: SK-OV-3
M14 = system: M14
Malme-3M = system: Malme-3M
IGROV-1 = system: IGROV-1
NCI/ADR-RES = system: NCI/ADR-RES
Hs-578T = system: Hs-578T
HOP-92 = system: HOP-92
SK-MEL-5 = system: SK-MEL-5
UO-31 = system: UO-31

In the case of `O=C1OC(c2ccc(O)cc2)(c2ccc(O)cc2)c2ccc(Cl)c3cccc1c23.O=C1OC(c2ccc(O)cc2)(c2ccc(O)cc2)c2cccc3c(Cl)ccc1c23`, the GI50 (UACC-257) was 22.2 µM (inactive), the GI50 (SW-620) was 14.9 µM (inactive) and the GI50 (UACC-62) was 10.1 µM (inactive). The GI50 (CAKI-1) was 8.51 µM (inactive), the GI50 (NCI-H460) was 12.4 µM (inactive) and the GI50 (PC-3) was 3.48 µM (inactive). The GI50 (SF-268) was 15.9 µM (inactive), the GI50 (KM12) was 8.11 µM (inactive) and the GI50 (SF-295) was 12.2 µM (inactive). For the same molecule, the GI50 (A549) was 18.8 µM (inactive), the GI50 (OVCAR-4) was 0.0384 µM (active) and the GI50 (COLO 205) was 1.03 µM (active). For the same molecule, the GI50 (HCT-15) was 10.8 µM, the GI50 (SK-MEL-28) was 4.09 µM (inactive) and the GI50 (MDA-N) was 11.8 µM (inactive). For the same molecule, the GI50 (SR) was 9.04 µM (inactive), the GI50 (A498) was 19.1 µM (inactive) and the GI50 (LOX IMVI) was 10.9 µM (inactive). For the same molecule, the GI50 (SN12C) was 8.47 µM (inactive), the GI50 (CCRF-CEM) was 15.5 µM (inactive) and the GI50 (SF-539) was 10.7 µM (inactive). The GI50 (SK-MEL-2) was 12.6 µM (inactive), the GI50 (HT-29) was 12.2 µM (inactive) and the GI50 (MDA-MB-231) was 10.7 µM (inactive). For the same molecule, the GI50 (BT-549) was 11.8 µM (inactive), the GI50 (K562) was 21.2 µM (inactive) and the GI50 (RXF 393) was 10.8 µM (inactive). The GI50 (RPMI-8226) was 12.5 µM (inactive), the GI50 (ACHN) was 13.9 µM (inactive) and the GI50 (HOP-62) was 3.94 µM (inactive). For the same molecule, the GI50 (OVCAR-5) was 9.84 µM (inactive), the GI50 (MDA-MB-435) was 9.46 µM (inactive) and the GI50 (NCI-H226) was 12.9 µM (inactive). For the same molecule, the GI50 (HCT-116) was 9.46 µM (inactive), the GI50 (U-251) was 11.9 µM (inactive) and the GI50 (TK-10) was 13.6 µM (inactive). The GI50 (MCF7) was 13.6 µM (inactive), the GI50 (NCI-H23) was 11.1 µM (inactive) and the GI50 (DU-145) was 75 µM (inactive). For the same molecule, the GI50 (SNB-19) was 23.1 µM (inactive), the GI50 (OVCAR-3) was 11.5 µM (inactive) and the GI50 (EKVX) was 0.075 µM (active). The GI50 (OVCAR-8) was 14.4 µM (inactive), the GI50 (SK-OV-3) was 19.2 µM (inactive) and the GI50 (M14) was 10 µM (inactive). For the same molecule, the GI50 (Malme-3M) was 9.55 µM (inactive), the GI50 (IGROV-1) was 12.5 µM (inactive) and the GI50 (NCI/ADR-RES) was 11.7 µM (inactive). The GI50 (Hs-578T) was 12.1 µM (inactive), the GI50 (HOP-92) was 24.2 µM (inactive) and the GI50 (SK-MEL-5) was 12.7 µM (inactive). For the same molecule, the GI50 (UO-31) was 23 µM (inactive).
